This note sets out measurements from patent US10961231B2, “NTCP inhibitors” (National Institute of Biological Sciences, Beijing, priority 2018, dated 2021).

pIC50: −log10 of the molar value.

By pIC50 is commonly meant the IC50 on a negative log10 scale, so that one unit is a factor of ten. As a reminder, the IC50 is the concentration needed to halve the response being measured. Low values mean greater potency, high ones weaker potency.

The first experiment deals with T1, NTCP (Homo sapiens, UniProt Q14973).
T1 sequence (Q14973 1-349): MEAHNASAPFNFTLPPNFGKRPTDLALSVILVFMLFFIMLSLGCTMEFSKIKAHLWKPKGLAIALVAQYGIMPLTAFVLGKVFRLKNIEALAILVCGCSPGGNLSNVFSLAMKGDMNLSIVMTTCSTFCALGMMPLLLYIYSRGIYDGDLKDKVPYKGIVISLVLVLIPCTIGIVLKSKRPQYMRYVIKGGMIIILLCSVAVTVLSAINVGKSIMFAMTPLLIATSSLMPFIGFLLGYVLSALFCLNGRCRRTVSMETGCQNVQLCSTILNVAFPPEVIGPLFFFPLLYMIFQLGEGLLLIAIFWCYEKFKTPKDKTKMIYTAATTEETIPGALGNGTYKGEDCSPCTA
The experiment is described as follows: [3H]-TCA uptake assay (NTCP inhibition). Particulars: IC50, given as a range, marked * (asterisk not explained). The format is cell-based. The method, then: [^3H]-TCA uptake assay. PTH and HepG2-NTCP cells were cultured in PMM for 24 hours to induce NTCP expression. After treated by DMSO or test compounds for 2 hours, the cells were then incubated with 1 μM [^3H]-taurocholate acid dissolved in Na^+ Ringer's buffer (the concentration of Na was 145 mM) for 15 minutes at 37° C. Subsequently, the cells were washed once in phosphate-buffered saline (PBS) and lysed in 50 μL 1% TritonX-100 in H2O for 5 minutes at room temperature. The lysate were totally transferred into a liquid scintillation 96 well plate and mixed with 200 μL liquid scintillation cocktail (Ultima Gold XR, PerkinElmer). Liquid scintillation counting was performed on a PerkinElmer 1450 LSC liquid scintillation counter.
`CCC1NC(=O)C(C2OC(SCc3cccc(OCC4CCOCC4)c3)CC2C)N(C)C(=O)C(C(C)C)N(C)C(=O)C(CC(C)C)N(C)C(=O)C(CC(C)C)N(C)C(=O)C(C)NC(=O)C(C)NC(=O)C(CC(C)C)N(C)C(=O)C(C(C)C)NC(=O)C(CC(C)C)N(C)C(=O)CN(C)C1=O` (stereo not shown) [Compound 105-s]: the negative logarithm of the IC50 (pIC50) is 4.00 to 6.00.
`CCC1NC(=O)C(C2OC(SCc3cc(Cl)ccc3Cl)CC2C)N(C)C(=O)C(C(C)C)N(C)C(=O)C(CC(C)C)N(C)C(=O)C(CC(C)C)N(C)C(=O)C(C)NC(=O)C(C)NC(=O)C(CC(C)C)N(C)C(=O)C(C(C)C)NC(=O)C(CC(C)C)N(C)C(=O)CN(C)C1=O` (stereo not shown) [Compound 98A-s] had a pIC50 of 4.00 to 6.00.
For `CCCCc1ccc(OC2CC(C)C(C3C(=O)NC(CC)C(=O)N(C)CC(=O)N(C)C(CC(C)C)C(=O)NC(C(C)C)C(=O)N(C)C(CC(C)C)C(=O)NC(C)C(=O)NC(C)C(=O)N(C)C(CC(C)C)C(=O)N(C)C(CC(C)C)C(=O)N(C)C(C(C)C)C(=O)N3C)O2)cc1` (stereo not shown) [Compound 8A-o], the negative logarithm of the IC50 (pIC50) was 4.00 to 6.00.
Regarding `CCOc1cc(OC2CC(C)C(C3C(=O)NC(CC)C(=O)N(C)CC(=O)N(C)C(CC(C)C)C(=O)NC(C(C)C)C(=O)N(C)C(CC(C)C)C(=O)NC(C)C(=O)NC(C)C(=O)N(C)C(CC(C)C)C(=O)N(C)C(CC(C)C)C(=O)N(C)C(C(C)C)C(=O)N3C)O2)ccc1Cl` (stereo not shown) [Compound 41A-o], the pIC50 is 4.00 to 6.00.
As for `CCC1NC(=O)C(C2OC(SCc3cc(Cl)cc(Cl)c3)CC2C)N(C)C(=O)C(C(C)C)N(C)C(=O)C(CC(C)C)N(C)C(=O)C(CC(C)C)N(C)C(=O)C(C)NC(=O)C(C)NC(=O)C(CC(C)C)N(C)C(=O)C(C(C)C)NC(=O)C(CC(C)C)N(C)C(=O)CN(C)C1=O` (stereo not shown) [Compound 91B-s], the pIC50 was 4.00 to 6.00.
As to `CCC1NC(=O)C(C2OC(Oc3ccc(Cl)c(OCCOC)c3)CC2C)N(C)C(=O)C(C(C)C)N(C)C(=O)C(CC(C)C)N(C)C(=O)C(CC(C)C)N(C)C(=O)C(C)NC(=O)C(C)NC(=O)C(CC(C)C)N(C)C(=O)C(C(C)C)NC(=O)C(CC(C)C)N(C)C(=O)CN(C)C1=O` (stereo not shown) [Compound 45A-o], the pIC50 was 4.00 to 6.00.
With `CCC1NC(=O)C(C2OC(Oc3cccc(OCCN(C)C)c3)CC2C)N(C)C(=O)C(C(C)C)N(C)C(=O)C(CC(C)C)N(C)C(=O)C(CC(C)C)N(C)C(=O)C(C)NC(=O)C(C)NC(=O)C(CC(C)C)N(C)C(=O)C(C(C)C)NC(=O)C(CC(C)C)N(C)C(=O)CN(C)C1=O` (stereo not shown) [Compound 14A-o], the pIC50 is 4.00 to 6.00.
For the compound `CCC1NC(=O)C(C2OC(Oc3cccc(OC(C)C)c3)CC2C)N(C)C(=O)C(C(C)C)N(C)C(=O)C(CC(C)C)N(C)C(=O)C(CC(C)C)N(C)C(=O)C(C)NC(=O)C(C)NC(=O)C(CC(C)C)N(C)C(=O)C(C(C)C)NC(=O)C(CC(C)C)N(C)C(=O)CN(C)C1=O` (stereo not shown) [Compound 30A-6], the pIC50 was 4.00 to 6.00.
In the case of `CCC1NC(=O)C(C2OC(SCc3ccc(-n4cccn4)cc3)CC2C)N(C)C(=O)C(C(C)C)N(C)C(=O)C(CC(C)C)N(C)C(=O)C(CC(C)C)N(C)C(=O)C(C)NC(=O)C(C)NC(=O)C(CC(C)C)N(C)C(=O)C(C(C)C)NC(=O)C(CC(C)C)N(C)C(=O)CN(C)C1=O` (stereo not shown) [Compound 77A-s], the negative logarithm of the IC50 (pIC50) was 4.00 to 6.00.
Compound `CCC1NC(=O)C(C2OC(OCc3cccc(OCC4CCOCC4)c3)CC2C)N(C)C(=O)C(C(C)C)N(C)C(=O)C(CC(C)C)N(C)C(=O)C(CC(C)C)N(C)C(=O)C(C)NC(=O)C(C)NC(=O)C(CC(C)C)N(C)C(=O)C(C(C)C)NC(=O)C(CC(C)C)N(C)C(=O)CN(C)C1=O` (stereo not shown) [Compound 105] showed a negative-log IC50 (pIC50) of 4.00 to 6.00.
Still for that read-out and setting: then `CCC1NC(=O)C(C2OC(Oc3cccc(OCCc4ccccc4)c3)CC2C)N(C)C(=O)C(C(C)C)N(C)C(=O)C(CC(C)C)N(C)C(=O)C(CC(C)C)N(C)C(=O)C(C)NC(=O)C(C)NC(=O)C(CC(C)C)N(C)C(=O)C(C(C)C)NC(=O)C(CC(C)C)N(C)C(=O)CN(C)C1=O` (stereo not shown) [Compound 35A-o], with 4.00 to 6.00; and `CCC1NC(=O)C(C2OC(Oc3ccc(OS(C)(=O)=O)cc3)CC2C)N(C)C(=O)C(C(C)C)N(C)C(=O)C(CC(C)C)N(C)C(=O)C(CC(C)C)N(C)C(=O)C(C)NC(=O)C(C)NC(=O)C(CC(C)C)N(C)C(=O)C(C(C)C)NC(=O)C(CC(C)C)N(C)C(=O)CN(C)C1=O` (stereo not shown) [Compound 5A-o], with 4.00 to 6.00.
Same read-out and setting: then `CCC1NC(=O)C(C2OC(Oc3cccc(OC(C)c4ccccc4)c3)CC2C)N(C)C(=O)C(C(C)C)N(C)C(=O)C(CC(C)C)N(C)C(=O)C(CC(C)C)N(C)C(=O)C(C)NC(=O)C(C)NC(=O)C(CC(C)C)N(C)C(=O)C(C(C)C)NC(=O)C(CC(C)C)N(C)C(=O)CN(C)C1=O` (stereo not shown) [Compound 34A-o], with 4.00 to 6.00; and `CCC1NC(=O)C(C2OC(Oc3ccc(Cl)c(OCc4ccccc4)c3)CC2C)N(C)C(=O)C(C(C)C)N(C)C(=O)C(CC(C)C)N(C)C(=O)C(CC(C)C)N(C)C(=O)C(C)NC(=O)C(C)NC(=O)C(CC(C)C)N(C)C(=O)C(C(C)C)NC(=O)C(CC(C)C)N(C)C(=O)CN(C)C1=O` (stereo not shown) [Compound 44A-o], with 4.00 to 6.00.
`CCC1NC(=O)C(C2OC(SCc3c(Cl)cccc3Cl)CC2C)N(C)C(=O)C(C(C)C)N(C)C(=O)C(CC(C)C)N(C)C(=O)C(CC(C)C)N(C)C(=O)C(C)NC(=O)C(C)NC(=O)C(CC(C)C)N(C)C(=O)C(C(C)C)NC(=O)C(CC(C)C)N(C)C(=O)CN(C)C1=O` (stereo not shown) [Compound 90A-s]: the negative-log IC50 (pIC50) is 4.00 to 6.00.

Staying with this experiment, now noted: IC50, given as a range; assay not given.
`CCC1NC(=O)C(C2OC(Sc3ccc(OS(C)(=O)=O)cc3)CC2C)N(C)C(=O)C(C(C)C)N(C)C(=O)C(CC(C)C)N(C)C(=O)C(CC(C)C)N(C)C(=O)C(C)NC(=O)C(C)NC(=O)C(CC(C)C)N(C)C(=O)C(C(C)C)NC(=O)C(CC(C)C)N(C)C(=O)CN(C)C1=O` [Compound 5A, [2-((2R,3R)-3-methyl-5-(4-(methylsulfonyloxy)phenylthio)tetrahydrofuran-2-yl)-2-(methylamino)acetic acid]^1-cyclosporin A] gave a negative logarithm of the IC50 (pIC50) of 5.00 to 6.00.
Consider `CCC1NC(=O)C(C2OC(OCc3ccc(-n4cccn4)cc3)CC2C)N(C)C(=O)C(C(C)C)N(C)C(=O)C(CC(C)C)N(C)C(=O)C(CC(C)C)N(C)C(=O)C(C)NC(=O)C(C)NC(=O)C(CC(C)C)N(C)C(=O)C(C(C)C)NC(=O)C(CC(C)C)N(C)C(=O)CN(C)C1=O` [Compound 77A, [2-((2R,3R)-5-(4-(1H-pyrazol-1-yl)benzyloxy)-3-methyltetrahydrofuran-2-yl)-2-(methylamino)acetic acid]^1-cyclosporin A], for which the negative-log IC50 (pIC50) was 5.00 to 6.00.

Still in this experiment, the particulars now being: given as a range, marked * (asterisk not explained).
For `CCC1NC(=O)C(C2OC(Sc3cc(Cl)cc(OCC4CCN(C)CC4)c3)CC2C)N(C)C(=O)C(C(C)C)N(C)C(=O)C(CC(C)C)N(C)C(=O)C(CC(C)C)N(C)C(=O)C(C)NC(=O)C(C)NC(=O)C(CC(C)C)N(C)C(=O)C(C(C)C)NC(=O)C(CC(C)C)N(C)C(=O)CN(C)C1=O` (stereo not shown) [Compound 71], the pIC50 was 4.00 to 6.00.

The same experiment, now with this note: given as a range; assay not given.
Compound `CCC1NC(=O)C(C2OC(Sc3cccc(OCc4ccc5c(c4)OCO5)c3)CC2C)N(C)C(=O)C(C(C)C)N(C)C(=O)C(CC(C)C)N(C)C(=O)C(CC(C)C)N(C)C(=O)C(C)NC(=O)C(C)NC(=O)C(CC(C)C)N(C)C(=O)C(C(C)C)NC(=O)C(CC(C)C)N(C)C(=O)CN(C)C1=O` [Compound 18A, [2-((2R,3R)-5-(3-(benzo[d][1,3]dioxol-5-ylmethoxy)phenylthio)-3-methyltetrahydrofuran-2-yl)-2-(methylamino)acetic acid]^1-cyclosporin A] returned an IC50 of 1 to 1000 nM.
Take `CCC1NC(=O)C(C2OC(Sc3ccc(OCc4ccccc4)cc3)CC2C)N(C)C(=O)C(C(C)C)N(C)C(=O)C(CC(C)C)N(C)C(=O)C(CC(C)C)N(C)C(=O)C(C)NC(=O)C(C)NC(=O)C(CC(C)C)N(C)C(=O)C(C(C)C)NC(=O)C(CC(C)C)N(C)C(=O)CN(C)C1=O` [Compound 57A, [2-((2R,3R)-5-(4-(benzyloxy)phenylthio)-3-methyltetrahydrofuran-2-yl)-2-(methylamino)acetic acid]^1-cyclosporin A]: the IC50 is 1 to 1000 nM.
With `CCC1NC(=O)C(C2OC(OCc3cccc(OC)c3)CC2C)N(C)C(=O)C(C(C)C)N(C)C(=O)C(CC(C)C)N(C)C(=O)C(CC(C)C)N(C)C(=O)C(C)NC(=O)C(C)NC(=O)C(CC(C)C)N(C)C(=O)C(C(C)C)NC(=O)C(CC(C)C)N(C)C(=O)CN(C)C1=O` [Compound 81A, [2-((2R,3R)-5-(3-methoxybenzyloxy)-3-methyltetrahydrofuran-2-yl)-2-(methylamino)acetic acid]^1-cyclosporin A], the IC50 was in the range of 1 to 1000 nM.

The same experiment, now with this note: given as a range; assay not given; read-out: IC50.
In the case of `CC[C@@H]1NC(=O)[C@H]([C@@H]2OC(OCc3cc(Cl)cc(Cl)c3)C[C@H]2C)N(C)C(=O)[C@H](C(C)C)N(C)C(=O)[C@H](CC(C)C)N(C)C(=O)[C@H](CC(C)C)N(C)C(=O)[C@@H](C)NC(=O)[C@H](C)NC(=O)[C@H](CC(C)C)N(C)C(=O)[C@H](C(C)C)NC(=O)[C@H](CC(C)C)N(C)C(=O)CN(C)C1=O` (stereo partly drawn) [Compound 91A, [2-((2R,3R)-5-(3,5-dichlorobenzyloxy)-3-methyltetrahydrofuran-2-yl)-2-(methylamino)acetic acid]^1-cyclosporin A], the pIC50 was 6.00 to 9.00.
